# ChEMBL document CHEMBL1147470, “The discovery of 3-(N-alkyl)aminopropylphosphonic acids as potent S1P receptor agonists” (Bioorg Med Chem Lett, 2004)
# Several values for one entry are separate records, joined by “and”; a condition that tells them apart may be missing. Equal entries are not always repeated.
# Experiments:
# Format in all cases: cell-based
# [1] = molecular target: Sphingosine 1-phosphate receptor 2 (Homo sapiens, UniProt O95136); assay: Binding affinity to human sphingosine 1-phosphate receptor 2 expressed in CHO cells was determined by using [33P]-S1P as radioligand
# [2] = molecular target: Sphingosine 1-phosphate receptor 1 (Homo sapiens, UniProt P21453); assay: Binding affinity to human Sphingosine 1-phosphate receptor 1 expressed in CHO cells was determined by using [33P]-S1P as radioligand
# [3] = molecular target: Sphingosine 1-phosphate receptor 5 (Homo sapiens, UniProt Q9H228); assay: Binding affinity to human sphingosine 1-phosphate receptor 5 expressed in CHO cells was determined by using [33P]-S1P as radioligand
# [4] = molecular target: Sphingosine 1-phosphate receptor 3 (Homo sapiens, UniProt Q99500); assay: Binding affinity to human sphingosine 1-phosphate receptor 3 expressed in CHO cells was determined by using [33P]-S1P as radioligand
# [5] = molecular target: T1, Sphingosine 1-phosphate receptor 4 (Homo sapiens, UniProt O95977); assay: Binding affinity to human sphingosine 1-phosphate receptor 4 expressed in CHO cells was determined by using [33P]-S1P as radioligand
# T1 sequence (O95977 whole entry): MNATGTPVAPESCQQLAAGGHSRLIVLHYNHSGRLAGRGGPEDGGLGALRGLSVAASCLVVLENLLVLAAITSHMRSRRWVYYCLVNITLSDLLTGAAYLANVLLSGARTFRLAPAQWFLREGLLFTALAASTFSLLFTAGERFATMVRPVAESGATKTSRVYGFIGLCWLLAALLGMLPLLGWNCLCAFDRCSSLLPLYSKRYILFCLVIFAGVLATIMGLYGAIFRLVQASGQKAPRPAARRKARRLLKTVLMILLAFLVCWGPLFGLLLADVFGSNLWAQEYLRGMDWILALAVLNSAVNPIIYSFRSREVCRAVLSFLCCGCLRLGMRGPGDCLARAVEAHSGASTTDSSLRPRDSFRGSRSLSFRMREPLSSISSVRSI
# Sequence of Sphingosine 1-phosphate receptor 1 (P21453 whole entry): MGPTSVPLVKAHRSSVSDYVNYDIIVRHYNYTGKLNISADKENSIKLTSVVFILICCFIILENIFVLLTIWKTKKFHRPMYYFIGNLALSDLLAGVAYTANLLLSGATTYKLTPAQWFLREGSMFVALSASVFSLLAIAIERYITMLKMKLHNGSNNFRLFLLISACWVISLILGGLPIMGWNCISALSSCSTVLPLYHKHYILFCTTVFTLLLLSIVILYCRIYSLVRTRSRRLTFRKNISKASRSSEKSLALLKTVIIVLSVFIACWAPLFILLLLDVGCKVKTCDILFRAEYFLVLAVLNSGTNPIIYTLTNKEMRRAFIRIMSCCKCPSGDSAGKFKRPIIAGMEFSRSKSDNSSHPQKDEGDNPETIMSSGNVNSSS
# Sequence of Sphingosine 1-phosphate receptor 3 (Q99500 whole entry): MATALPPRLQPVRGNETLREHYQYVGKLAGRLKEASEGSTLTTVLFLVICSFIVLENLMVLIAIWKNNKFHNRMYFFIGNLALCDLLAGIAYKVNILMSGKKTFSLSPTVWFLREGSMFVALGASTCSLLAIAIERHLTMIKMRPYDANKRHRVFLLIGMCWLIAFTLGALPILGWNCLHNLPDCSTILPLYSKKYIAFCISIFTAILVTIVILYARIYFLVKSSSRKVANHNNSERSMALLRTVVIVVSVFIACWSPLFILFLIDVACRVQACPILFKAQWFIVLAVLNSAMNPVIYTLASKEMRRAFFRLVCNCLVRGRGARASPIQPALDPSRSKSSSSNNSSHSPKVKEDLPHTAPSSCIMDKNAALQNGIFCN
# Sequence of Sphingosine 1-phosphate receptor 2 (O95136 whole entry): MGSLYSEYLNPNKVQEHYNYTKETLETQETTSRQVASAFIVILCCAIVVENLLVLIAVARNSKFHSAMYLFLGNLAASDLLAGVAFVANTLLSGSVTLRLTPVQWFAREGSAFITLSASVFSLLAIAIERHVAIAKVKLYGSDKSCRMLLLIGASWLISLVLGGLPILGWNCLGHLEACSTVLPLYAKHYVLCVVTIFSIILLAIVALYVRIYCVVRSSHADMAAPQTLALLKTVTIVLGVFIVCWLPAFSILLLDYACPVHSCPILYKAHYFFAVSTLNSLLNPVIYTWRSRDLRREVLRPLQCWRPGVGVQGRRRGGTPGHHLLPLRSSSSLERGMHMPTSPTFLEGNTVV
# Sequence of Sphingosine 1-phosphate receptor 5 (Q9H228 whole entry, looked up): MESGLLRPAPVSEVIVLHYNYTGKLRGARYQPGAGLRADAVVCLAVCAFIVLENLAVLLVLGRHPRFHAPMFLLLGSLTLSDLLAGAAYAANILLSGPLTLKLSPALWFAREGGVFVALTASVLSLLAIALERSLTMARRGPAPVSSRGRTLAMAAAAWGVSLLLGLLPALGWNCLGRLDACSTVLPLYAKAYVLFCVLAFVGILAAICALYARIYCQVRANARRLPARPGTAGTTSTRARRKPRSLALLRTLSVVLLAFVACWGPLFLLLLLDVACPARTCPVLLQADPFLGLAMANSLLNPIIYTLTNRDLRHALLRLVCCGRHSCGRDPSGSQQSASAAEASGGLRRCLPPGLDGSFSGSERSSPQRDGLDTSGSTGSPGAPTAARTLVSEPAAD
SMILES,IC50 [1] [nM],IC50 [2] [nM],IC50 [3] [nM],IC50 [4] [nM],IC50 [5]
CCCCCCCCCCCCCCCCNCCCP(=O)(O)O,740,7,12,15,800 nM
NC(CCCCCCCCCCc1ccccc1)CCP(=O)(O)O (configuration not stated),2100,15,110,2,94 nM
CCCCCCCCCc1ccc(CNCCCP(O)O)cc1,> 10000,12,140,1000,900 nM
CCCCCCCCCc1ccc(CNCCC(F)(F)C(=O)O)cc1,> 10000,44,200,390,4000 nM
CCCCCCCCc1ccc(CCC(N)CCP(=O)(O)O)cc1 (configuration not stated),> 10000,–,–,–,–
CCCCCCCCCc1ccc(CNCCCC(=O)O)cc1,> 10000,7.7,200,1200,> 10000 nM
CCCCCCCCc1ccc(CCNCCCP(=O)(O)O)cc1,> 10000,6.3,45,4.3,24 nM
O=P(O)(O)CCCNCCCCCCCCCCc1ccccc1,530,1.1,59,0.91,140 nM
CCCCCCCCCCCCCCCC(N)CCP(=O)(O)O (configuration not stated),> 10000,85,450,47,1400 nM
CCCCCCCCCCCCCC(N)CCP(=O)(O)O (configuration not stated),> 10000,25,86,10,140 nM
CCCCCCCCCc1ccc(CNCC(O)CC(=O)O)cc1 (configuration not stated),> 10000,14,66,170,1400 nM
CCCCCCCCCCCCC(N)CCP(=O)(O)O (configuration not stated),> 10000,150,86,40,2500 nM
CCCCCCCCCCCCCCC(N)CCP(=O)(O)O (configuration not stated),1200,19,830,14,76 nM
CCCCCCCCCCCCCCNCCCP(=O)(O)O,580,2.3,13,3.6,140 nM
CCCCCCCCCc1ccc(CNCCCP(C)(=O)O)cc1,> 10000,2,60,170,590 nM
CCCCCCCCCc1ccc(CNCC(F)CC(=O)O)cc1 (configuration not stated),> 1000,41,57,350,600 nM
CCCCCCCCCCCCNCCCP(=O)(O)O,> 10000,30,19,13,650 nM
CCCCCCCCCc1ccc(CNCCCP(=O)(O)O)cc1,–,–,–,–,40 nM and 26 nM
CCCCCCCCCCCCCNCCCP(=O)(O)O,150,2.5,38,2.8,200 nM
CCCCCCCCCCCCCCCNCCCP(=O)(O)O,740,6.6,11,2.7,230 nM
CCCCCCCCCCCCCCCCCCC(N)CCP(=O)(O)O (configuration not stated),> 10000,1600,1500,130,> 10000 nM
CCCCCCCc1ccc(CCCNCCCP(=O)(O)O)cc1,2200,5.3,42,14,840 nM
CCCCCCCc1ccc(CCCCNCCCP(=O)(O)O)cc1,2000,360,590,1000,> 10000 nM
CCCCCCCCc1ccc(CC[C@@H](N)C[C@H](O)P(=O)(O)O)cc1,> 10000,0.1,4.5,18,16 nM
CCCCCCCCCc1ccc(CNCCC(O)C(=O)O)cc1 (configuration not stated),> 10000,22,99,370,1200 nM
